In US11000535B2, “Anticancer composition and use thereof” (KAOHSIUNG MEDICAL UNIVERSITY, priority 2015, dated 2021):
Like-named read-outs stand apart in the source and are kept apart here. Residues, ends and D or L forms follow the SMILES beside them. *: point of attachment. Cbz = O=C(OCc1ccccc1)*; CH2F = FC*

Legend:
[1] = tested on: human glycine N-methyltransferase promoter; experiment: GNMT promoter-driven luciferase reporter assay in H7GPL cells; assay type: cell-based; conditions: for fold induction at 10 µM: Homo sapiens, H7GPL, read-out: Fold change (10 uM)
Protocol: Please refer to FIG. 1, which illustrates the configuration of pLV-GNMTpLuc plasmid. HEK293T cells were cotransfected with a packaging plasmid-pCMV-ΔR8.91, a VSV-G envelope expressing plasmid-pMD.G and pLV-GNMTpLuc using TurboFect™ Reagent (Fermentas, Hanover, Md.). One resultant colony was picked, amplified and denominated as H7GPL (HuH-7-GNMT promoter-Luciferase). The relative luciferase activity (RLA) was calculated as “activity of luciferase/intensity of alamarBlue fluorescence”. The fold changes in GNMT promoter induction was calculated as “RLA of drug/RLA of solvent control”. Compounds with the ability to activate human glycine N-methyltransferase promoter in H7GPL could serve as a citeria for screening drugs.
Please refer to FIG. 2, which illustrates the luciferase activity in a screening platform. Previously, 26 FDA approved drugs were identified that can reverse the gene expression signature of HCC. We obtained 26 drugs. H7GPL cells were seeded in 96-well plates for 18 hours and then were treated with these 26 drugs and solvent control for an extra 24 hours.
In the initial screening, when (individual luciferase activity−average luciferase activity of all hits)/standardized Z scores of all samples is greater than 1.5, it means the compound has the capability of enhancing the GNMT reporter activity.
Huh7 cells were infected with this virus and selected with puromycin-containing medium. One resultant colony was picked, amplified and denominated as H7GPL (Huh7 GNMT promoter-luciferase). The cell lysate of H7GPL was used for luciferase activity measurement using the Luciferase Assay System (Promega).
For primary screening, H7GPL cells seeded in 96-well plates were treated for 24 h with individual drugs at a concentration of 2 mg/mL for crude extracts and 0.2 mg/mL for pure compounds and then were lysed for the luciferase activity assay using the Luciferase Assay System (Promega, Madison, Wis., USA).
Reporter activity for each well was transformed to the Z score by using data from all assay plates.
Then, hits of primary screening were sorted by Z score ≥1.5 and used for secondary screening.
And then placed in the above-described culture plate H7GPL cell replication, and after the disposal of seized goods in those 20 hours, the company added AbD serotec Reagent (Oxford, UK), further cultured for 4 hours.
The cytotoxicity was measured according to the manufacturer's recommendation for assessing the reporter gene.
Drugs that induced GNMT promoter activity ≥1.5-fold were considered as hits of the secondary screen with the capability of enhancing the activity of GNMT.

c-Myc protein = experiment: Protein degradation inhibitors on PGG-induced c-Myc degradation; assay type: cell-based, human; conditions: co-treatment with PGG, Huh7 cells, FIG. 45
Huh7 cells = experiment: Combination treatment, Huh7 xenograft tumor volume; assay type: in vivo, NOD-SCID mice; conditions: sorafenib 10 mpk; F3-6 25 mpk or 300 mpk
Protocol: Please refer to FIG. 29, which illustrates the tumor volume, wherein the numeral 1 is for a physiological saline solution, the numeral 2 is for F3-6 (25 mg/kg (mpk)), the numeral 3 is for F3-6 (300 mpk), the numeral 4 is for sorafenib (10 mpk), the numeral 5 is for F3-6 (25 mpk) with sorafenib (10 mpk), and the numeral 6 is for PGG (25 mpk) with sorafenib (10 mpk).
To assess the combinatory effect of drugs, female nonobese diabetic/severe combined immunodeficiency (NOD-SCID) mice lacking thymus gland were injected with Huh7 cells (2×10^6).
Mice are administered F3-6 (25 mpk), F3-6 (300 mpk) or PGG (25 mpk) three times per week, and sorafenib (10 mpk) twice per week alone or combined with F3-6 or PGG as illustrated in FIG. 29.
(§1) Tumor growth was monitored (every day or three times per week) by using Vernier caliper measurement of the length (L) and width (W) of the tumor.
(§2) Tumor volume (TV) was calculated by using the formula volume=(L×W^2)/2.

[2] = tested on: Huh7-GFP and Huh7-GNMT transfected cells; experiment: Sorafenib in Huh7-GFP / Huh7-GNMT xenograft; assay type: in vivo, NOD-SCID mice
Protocol: To assess the effect of additional GNMT to administering sorafenib, female nonobese diabetic/severe combined immunodeficiency (NOD-SCID) mice lacking thymus gland were subcutaneously injected with […] or Huh7-GFP cells. The mice were randomly grouped and treated with a sorafenib or a physiological saline. Overexpression of GNMT inhibits cancer cell proliferation compared to the tumor due to Huh7-GFP cells.
Please refer to FIG. 27, which illustrates that the tumor cells are treated with the compound of sorafenib, wherein the numeral 1 is for Huh7-GFP transfected cells administered with a physiological saline, the numeral 2 is for Huh7-GNMT transfected cells administered with a physiological saline, the numeral 3 is for Huh7-GFP transfected cells administered with 10 mg/kg sorafenib and the numeral 4 is for Huh7-GNMT transfected cells administered with 10 mg/kg sorafenib. […] Based on the above results, a survey for the effect of PGG combined with sorafenib as a combination therapy to liver cancer was conducted. […]
as §1, §2

Huh7-GNMT cells = experiment: Sorafenib cell viability in Huh7-GFP and Huh7-GNMT cells; assay type: cell-based, human; conditions: 2.5 μM sorafenib
Protocol: The cell viability is determined after Huh7-GFP cells capable of expressing Green fluorescent protein (GFP) and Huh7-GNMT cells are treated with an increased concentration of sorafenib.
Please refer to FIG. 26, which illustrates the effect of sorafenib on cell proliferation, wherein numerals 1 and 2 denote Huh7-GFP cells and Huh7-GNMT respectively.
Stablized cells comprises Huh7-GFP, Huh7-GNMT, Huh7-shGNMT, Huh7-shLacZ and Huh7-shMyc, which are established via the lentivirus system and cultured in Dulbecco's Modified Eagle's Medium (DMEM) (Gibco BRL, Grand Island, N.Y., USA) with 1 μg/ml puromycin.

[3] = GNMT promoter induction, RLA of drug/RLA of solvent control, 10 uM, 24 hours

O=c1cc(-c2ccc(O)cc2)oc2cc(O)cc(O)c12 [Apigenin]
GNMT promoter activity (in words) ([1]; H7GPL luciferase): remarkably induced GNMT promoter activity
fold induction at 10 µM [1, 3]: 1.8

CC(C)COCC(CN(Cc1ccccc1)c1ccccc1)N1CCCC1 (stereo not drawn) [Bepridil]
fold induction at 10 µM [1, 3]: 0.7

CC[C@@]1(O)C(=O)OCc2c1cc1n(c2=O)Cc2cc3ccccc3nc2-1 [Camptothecin]
fold induction at 10 µM [1, 3]: 0.4

CN(C)CCCN1c2ccccc2Sc2ccc(Cl)cc21 [Chlorpromazine]
fold induction at 10 µM [1, 3]: 0.7

Cc1cc(C2CCCCC2)n(O)c(=O)c1 [Ciclopirox]
GNMT promoter activity (in words) ([1]; H7GPL luciferase): remarkably induced GNMT promoter activity
fold induction at 10 µM [1, 3]: 8.2

Clc1ccc(C(OCCN2CCCCC2)c2ccccc2)cc1 (stereo not drawn) [Cloperastine]
fold induction at 10 µM ([1]; 24 h): 1

COc1ccccc1N1CCN(CCCCNC(=O)c2ccc3ccccc3c2)CC1.Cl.Cl [DO 897/99]
Fold change (10 uM) [1, 3]: 0.9

OCCN(CCO)c1nc(N2CCCCC2)c2nc(N(CCO)CCO)nc(N3CCCCC3)c2n1 [Dipyridamole]
fold induction at 10 µM [1, 3]: 0.9

O=C(O)CN(CCN(CC(=O)O)CC(=O)O)CC(=O)O [EDTA, ethylenediamine-tetraacetic acid]
prevention of PGG-induced c-Myc degradation / inhibition of c-Myc protein expression (c-Myc protein): can not prevent

O=C1Nc2ccc3ncsc3c2/C1=C/Nc1ccc(S(=O)(=O)Nc2ccccn2)cc1 [GW-8510]
Fold change (10 uM) [1, 3]: 0.4

O=c1cc(-c2ccc(O)c(O)c2)oc2cc(O)cc(O)c12 [Luteolin]
GNMT promoter activity (in words) ([1]; H7GPL luciferase): remarkably induced GNMT promoter activity
fold induction at 10 µM [1, 3]: 1.9

CC(C)C[C@@H](C=O)NC(=O)[C@H](CC(C)C)NC(=O)[C@H](CC(C)C)NC(=O)OCc1ccccc1 [MG132, Z-LEU-LEU-LEU-CHO] (Cbz-Leu-Leu-Leu-aldehyde)
prevention of PGG-induced c-Myc degradation / inhibition of c-Myc protein expression (c-Myc protein): can not prevent

COC(=O)Nc1nc2ccc(C(=O)c3ccccc3)cc2[nH]1 [Mebendazole]
fold induction at 10 µM [1, 3]: 1

OC(c1cc(C(F)(F)F)nc2c(C(F)(F)F)cccc12)C1CCCCN1 (stereo not drawn) [Mefloquine]
fold induction at 10 µM [1, 3]: 0.3

Cl.N [NH4Cl]
prevention of PGG-induced c-Myc degradation / inhibition of c-Myc protein expression (c-Myc protein): can not prevent

CC(COc1ccccc1)N(CCCl)Cc1ccccc1 (stereo not drawn) [Phenoxybenzamine]
fold induction at 10 µM ([1]; 24 h): 0.7

CN1CCN(CCCN2c3ccccc3Sc3ccc(Cl)cc32)CC1 [Prochlorperazine]
fold induction at 10 µM [1, 3]: 0.7

Cc1cc(/C=C/c2ccc3cc(N(C)C)ccc3[n+]2C)c(C)n1-c1ccccc1 [Pyrvinium]
fold induction at 10 µM [1, 3]: 0.5

C[n+]1cc2c3c(ccc2c2ccc4cc5c(cc4c21)OCO5)OCO3 [Sanguinarine]
fold induction at 10 µM ([1]; 24 h): 0.1

Clc1ccc(CSC(Cn2ccnc2)c2ccc(Cl)cc2Cl)cc1 (stereo not drawn) [Sulconazole]
fold induction at 10 µM [1, 3]: 0.5

C=CCNC1=C2C[C@@H](C)C[C@H](OC)[C@H](O)[C@@H](C)/C=C(\C)[C@H](OC(N)=O)[C@@H](OC)/C=C\C=C(/C)C(=O)NC(=CC1=O)C2=O [Tanespimycin]
fold induction at 10 µM [1, 3]: 0.5

CSc1ccc2c(c1)N(CCC1CCCCN1C)c1ccccc1S2 (stereo not drawn) [Thioridazine]
fold induction at 10 µM [1, 3]: 0.1

CN1CCN(CCCN2c3ccccc3Sc3ccc(C(F)(F)F)cc32)CC1 [Trifluoperazine]
fold induction at 10 µM [1, 3]: 0.1

Cc1cc2cc3c(C)cc(=O)oc3c(C)c2o1 [Trioxysalen]
fold induction at 10 µM ([1]; 24 h): 1.2

COC(=O)C[C@H](NC(=O)[C@H](C)NC(=O)[C@@H](NC(=O)OCc1ccccc1)C(C)C)C(=O)CF [Z-VAD-FMK, N-Benzyloxycarbonyl-Val-Ala-Asp (Ome)fluoromethyl ketone] (Cbz-Val-Ala-Asp(OMe)-CH2F)
prevention of PGG-induced c-Myc degradation / inhibition of c-Myc protein expression (c-Myc protein): can prevent

CCCC[C@@H](C=O)NC(=O)[C@H](CC(C)C)NC(=O)OCc1ccccc1 [calpeptin, N-Benzyloxy-carbonyl-L-leucyl-L-norleucinal]
prevention of PGG-induced c-Myc degradation / inhibition of c-Myc protein expression (c-Myc protein): can not prevent

CCN(CC)CCCC(C)Nc1ccnc2cc(Cl)ccc12 (stereo not drawn) [chloroquine diphosphate]
prevention of PGG-induced c-Myc degradation / inhibition of c-Myc protein expression (c-Myc protein): can not prevent

Oc1c(I)cc(Cl)c2cccnc12 [clioquinol(quinoinol), clioquinol]
GNMT promoter activity (in words) ([1]; H7GPL luciferase): remarkably induced GNMT promoter activity
fold induction at 10 µM [1, 3]: 3.8

O=C(O)c1cc(O)c(O)c(O)c1 [gallic acid]
GNMT promoter activity (in words) ([1]; H7GPL luciferase): none of which can either affect the activity of GNMT promoter

CNC(=O)c1cc(Oc2ccc(NC(=O)Nc3ccc(Cl)c(C(F)(F)F)c3)cc2)ccn1 [sorafenib, 4-[4-[[4-chloro-3-(trifluoromethyl)phenyl]carbamoylamino]phenoxy]-N-methyl-pyridine-2-carbox-amide]
tumor growth, single drug (Huh7 cells): effective in inhibiting the tumor growth
size of the tumor, Huh7-GNMT transfected cells, compared with other groups ([2]; 10 mg/kg): reducing the size of the tumor is statistically significant
tumor growth ([2]; oral 10 mpk, three days a week): significantly inhibits tumor growth
viability of GNMT stable cells compared to GFP control cells (Huh7-GNMT cells): decreased significantly

O=C(CCCCCCC(=O)Nc1ccccc1)NO [suberoylanilide hydroxamic acid]
GNMT promoter activity (in words) ([1]; H7GPL luciferase): remarkably induced GNMT promoter activity
dose dependence of GNMT promoter activity ([1]; H7GPL luciferase): dose-dependently
GNMT promoter activity (in words) ([1]; H7GPL luciferase, listed as SAHA): potent GNMT inducer
fold induction at 10 µM ([1]; 24 h): 18.6

CC(/C=C/C(=O)NO)=C\[C@@H](C)C(=O)c1ccc(N(C)C)cc1 [trichostatin A]
Fold change (0.2 uM) ([1]; GNMT promoter induction, 0.2 uM, 24 hours): 3.4 with Fold
GNMT promoter activity (in words) ([1]; H7GPL luciferase): remarkably induced GNMT promoter activity

CC1=C(CO)C(=O)O[C@@H]([C@@H](C)[C@H]2CC[C@H]3[C@@H]4C[C@H]5O[C@]56[C@@H](O)C=CC(=O)[C@]6(C)[C@H]4CC[C@]23C)C1 [withaferin A]
Fold change (10 uM) [1, 3]: 0

Tyloxapol
Fold change (10 uM) [1, 3]: 0.6
